Data: ChEMBL document CHEMBL3217727, “Berberine azoles as antimicrobial agents: synthesis, biological evaluation and their interactions with human serum albumin” (Medchemcomm, 2013)
≈ marks a conversion by molar mass, not a printed value.

Columns and labels:
[1] = test system: Candida albicans; experiment: Antimicrobial activity against Candida albicans ATCC 90029 after 24 hrs by microbroth dilution method; assay type: functional; details: ATCC 90029, 24 h
[2] = test system: Micrococcus luteus; experiment: Antimicrobial activity against Micrococcus luteus ATCC 4698 after 24 hrs by microbroth dilution method; assay type: functional; details: NCTC 2665, 24 h
[3] = test system: Saccharomyces cerevisiae; experiment: Antimicrobial activity against Saccharomyces cerevisiae ATCC 9763 after 24 hrs by microbroth dilution method; assay type: functional; details: ATCC 9763, 24 h
[4] = test system: Bacillus spizizenii; experiment: Antimicrobial activity against Bacillus subtilis ATCC 6633 after 24 hrs by microbroth dilution method; assay type: functional; details: ATCC 6633, 24 h
[5] = test system: Candida; experiment: Antimicrobial activity against Candida mycoderma after 24 hrs by microbroth dilution method; assay type: functional
[6] = test system: Cyberlindnera jadinii; experiment: Antimicrobial activity against Candida utilis ATCC 9950 after 24 hrs by microbroth dilution method; assay type: functional; details: Williopsis jadinii, ATCC 9950, 24 h
[7] = test system: Staphylococcus aureus; experiment: Antimicrobial activity against Staphylococcus aureus ATCC 25923 after 24 hrs by microbroth dilution method; assay type: functional; details: ATCC 25923, 24 h
[8] = test system: Pseudomonas aeruginosa; experiment: Antimicrobial activity against Pseudomonas aeruginosa ATCC 27853 after 24 hrs by microbroth dilution method; assay type: functional; details: ATCC 27853, 24 h
[9] = test system: Escherichia coli; experiment: Antimicrobial activity against Escherichia coli […] after 24 hrs by microbroth dilution method; assay type: functional
[10] = test system: Proteus vulgaris; experiment: Antimicrobial activity against Proteus vulgaris ATCC 8427 after 24 hrs by microbroth dilution method; assay type: functional; details: ATCC 8427, 24 h
[11] = test system: Staphylococcus aureus; experiment: Antimicrobial activity against methicillin-resistant Staphylococcus aureus N315 after 24 hrs by microbroth dilution method; assay type: functional; details: N315, 24 h
[12] = test system: Shigella dysenteriae; experiment: Antimicrobial activity against Shigella dysenteriae ATCC 51252 after 24 hrs by microbroth dilution method; assay type: functional; details: ATCC 51252, 24 h
[13] = test system: Proteus vulgaris; experiment: Ratio of chloromycin MIC to compound MIC for Proteus vulgaris ATCC 8427; assay type: functional
[14] = molecular target: Albumin (Homo sapiens, UniProt P02768); experiment: Binding affinity to human serum albumin at 0.2 to 1.8 10^-5 mol/L at pH 7.4 at 294 K by UV-vis spectroscopic analysis; assay type: ADME; details: isolated protein
Chain of Albumin (P02768 whole entry): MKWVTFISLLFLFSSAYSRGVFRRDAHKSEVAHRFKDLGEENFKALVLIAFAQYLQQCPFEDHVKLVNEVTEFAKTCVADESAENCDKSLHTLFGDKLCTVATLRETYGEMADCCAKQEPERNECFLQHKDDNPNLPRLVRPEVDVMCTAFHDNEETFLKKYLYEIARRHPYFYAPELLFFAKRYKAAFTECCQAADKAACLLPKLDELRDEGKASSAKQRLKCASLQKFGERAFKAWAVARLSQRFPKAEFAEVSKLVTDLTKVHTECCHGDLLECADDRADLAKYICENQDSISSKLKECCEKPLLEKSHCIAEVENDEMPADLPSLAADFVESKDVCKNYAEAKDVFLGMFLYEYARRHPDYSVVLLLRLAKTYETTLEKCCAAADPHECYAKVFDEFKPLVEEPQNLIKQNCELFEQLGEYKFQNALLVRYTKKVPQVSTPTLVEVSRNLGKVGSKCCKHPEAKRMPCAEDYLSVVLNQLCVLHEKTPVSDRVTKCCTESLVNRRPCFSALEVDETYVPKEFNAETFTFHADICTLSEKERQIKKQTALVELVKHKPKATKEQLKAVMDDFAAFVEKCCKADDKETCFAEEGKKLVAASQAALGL

[15] = test system: Proteus vulgaris; experiment: Ratio of norfloxacin MIC to compound MIC for Proteus vulgaris ATCC 8427; assay type: functional
[16] = test system: Proteus vulgaris; experiment: Ratio of berberine MIC to compound MIC for Proteus vulgaris ATCC 8427; assay type: functional

`COc1ccc2cc3[n+](cc2c1OCCN(CCn1cncn1)Cc1ccc(Cl)cc1)CCc1cc2c(cc1-3)OCO2.[Cl-]` was tested, and the MIC80 [1] was 32 µg/mL, the MIC [2] was 16 µg/mL and the MIC80 [3] was 32 µg/mL. It also gave an MIC [4] of 8 µg/mL, an MIC80 [5] of 32 µg/mL and an MIC80 [6] of 16 µg/mL.

`COc1ccc2cc3[n+](cc2c1OCCN(CCSc1nc2ccccc2[nH]1)Cc1ccc(F)cc1F)CCc1cc2c(cc1-3)OCO2.[Cl-]` was tested, and the MIC80 [1] was 64 µg/mL, the MIC [2] was 128 µg/mL and the MIC [7] was 32 µg/mL. For the same compound, the MIC80 [3] was 64 µg/mL, the MIC [4] was 64 µg/mL and the MIC80 [5] was 128 µg/mL. It also gave an MIC [8] of 64 µg/mL, an MIC80 [6] of 64 µg/mL and an MIC [9] of 32 µg/mL. It also gave an MIC [10] of 64 µg/mL, an MIC [11] of 64 µg/mL and an MIC [12] of 128 µg/mL.

`Fc1ccc(CN(CCBr)CCn2cncn2)c(F)c1` showed an MIC80 [1] of 32 µg/mL (≈ 92.7 µM), an MIC [2] of 32 µg/mL (≈ 92.7 µM) and an MIC80 [3] of 128 µg/mL (≈ 371 µM). It also gave an MIC [4] of 256 µg/mL (≈ 742 µM), an MIC80 [5] of 256 µg/mL (≈ 742 µM) and an MIC80 [6] of 256 µg/mL (≈ 742 µM).

For `COc1ccc2cc3[n+](cc2c1OCCN(CCn1cncn1)Cc1ccc(F)cc1F)CCc1cc2c(cc1-3)OCO2.[Cl-]`, the Ratio [13] was 16, the Activity [14] was “Active” and the MIC80 [1] was 4 µg/mL. It also gave an MIC [2] of 8 µg/mL, a Ratio [15] of 4 and an MIC80 [3] of 32 µg/mL. For the same compound, the MIC [4] was 8 µg/mL, the MIC80 [5] was 2 µg/mL and the MIC80 [6] was 8 µg/mL. It also gave a Ratio [16] of 64.

`COc1ccc2cc3[n+](cc2c1OCCN(CCn1ccnc1)Cc1ccc(F)cc1F)CCc1cc2c(cc1-3)OCO2.[Cl-]` gave an MIC80 [1] of 32 µg/mL, an MIC [2] of 32 µg/mL and an MIC [7] of 8 µg/mL. The MIC80 [3] was 32 µg/mL, the MIC [4] was 16 µg/mL and the MIC80 [5] was 32 µg/mL. It also gave an MIC [8] of 16 µg/mL, an MIC80 [6] of 32 µg/mL and an MIC [9] of 32 µg/mL. The MIC [10] was 32 µg/mL, the MIC [11] was 16 µg/mL and the MIC [12] was 16 µg/mL.

Work on `COc1ccc2cc3[n+](cc2c1OCCN(CCn1cncn1)Cc1cccc(Cl)c1)CCc1cc2c(cc1-3)OCO2.[Cl-]` yielded an MIC80 [1] of 16 µg/mL, an MIC [2] of 32 µg/mL and an MIC80 [3] of 32 µg/mL. For the same compound, the MIC [4] was 16 µg/mL, the MIC80 [5] was 4 µg/mL and the MIC80 [6] was 8 µg/mL.

Work on `COc1ccc2cc3[n+](cc2c1OCCN(CCn1cncn1)Cc1ccccc1F)CCc1cc2c(cc1-3)OCO2.[Cl-]` yielded an MIC80 [1] of 4 µg/mL, an MIC [2] of 8 µg/mL and an MIC80 [3] of 16 µg/mL. For the same compound, the MIC [4] was 8 µg/mL, the MIC80 [5] was 2 µg/mL and the MIC80 [6] was 16 µg/mL.

In the case of `O=C(N[C@H](CO)[C@H](O)c1ccc([N+](=O)[O-])cc1)C(Cl)Cl` [CHLORAMPHENICOL], the MIC [2] is reported as 8 µg/mL (≈ 24.8 µM) and the MIC [4] is reported as 32 µg/mL (≈ 99 µM).

For `Fc1ccc(CN(CCBr)CCn2nnc3ccccc32)c(F)c1`, the MIC80 [1] was > 512 µg/mL, the MIC [2] was 256 µg/mL (≈ 648 µM) and the MIC [7] was 256 µg/mL (≈ 648 µM). For the same compound, the MIC80 [3] was 256 µg/mL (≈ 648 µM), the MIC [4] was 256 µg/mL (≈ 648 µM) and the MIC80 [5] was > 512 µg/mL. It also gave an MIC [8] of 128 µg/mL (≈ 324 µM), an MIC80 [6] of 256 µg/mL (≈ 648 µM) and an MIC [9] of 128 µg/mL (≈ 324 µM). For the same compound, the MIC [10] was 256 µg/mL (≈ 648 µM), the MIC [11] was 128 µg/mL (≈ 324 µM) and the MIC [12] was 64 µg/mL (≈ 162 µM).

`Fc1cccc(CN(CCBr)CCn2cncn2)c1` gave an MIC80 [1] of 32 µg/mL (≈ 97.8 µM), an MIC [2] of 64 µg/mL (≈ 196 µM) and an MIC80 [3] of 128 µg/mL (≈ 391 µM). For the same compound, the MIC [4] was 256 µg/mL (≈ 782 µM), the MIC80 [5] was 256 µg/mL (≈ 782 µM) and the MIC80 [6] was 256 µg/mL (≈ 782 µM).

Work on `Clc1ccc(CN(CCBr)CCn2cncn2)cc1` yielded an MIC80 [1] of 128 µg/mL (≈ 372 µM), an MIC [2] of 512 µg/mL (≈ 1490 µM) and an MIC80 [3] of 64 µg/mL (≈ 186 µM). For the same compound, the MIC [4] was 256 µg/mL (≈ 745 µM), the MIC80 [5] was 256 µg/mL (≈ 745 µM) and the MIC80 [6] was 128 µg/mL (≈ 372 µM).

In the case of `Fc1ccc(CN(CCBr)CCn2cnc3ccccc32)c(F)c1`, the MIC80 [1] is reported as 128 µg/mL (≈ 325 µM), the MIC [2] is reported as 256 µg/mL (≈ 649 µM) and the MIC [7] is reported as 128 µg/mL (≈ 325 µM). It also gave an MIC80 [3] of 128 µg/mL (≈ 325 µM), an MIC [4] of 256 µg/mL (≈ 649 µM) and an MIC80 [5] of 64 µg/mL (≈ 162 µM). It also gave an MIC [8] of 128 µg/mL (≈ 325 µM), an MIC80 [6] of 128 µg/mL (≈ 325 µM) and an MIC [9] of 512 µg/mL (≈ 1300 µM). It also gave an MIC [10] of 512 µg/mL (≈ 1300 µM), an MIC [11] of 256 µg/mL (≈ 649 µM) and an MIC [12] of 64 µg/mL (≈ 162 µM).

With `COc1ccc2cc3[n+](cc2c1OCCN(CCn1cncn1)Cc1ccc(Cl)cc1Cl)CCc1cc2c(cc1-3)OCO2.[Cl-]` the MIC80 [1] was 4 µg/mL, the MIC [2] was 16 µg/mL and the MIC80 [3] was 16 µg/mL. It also gave an MIC [4] of 8 µg/mL, an MIC80 [5] of 4 µg/mL and an MIC80 [6] of 16 µg/mL.

Compound `COc1ccc2cc3[n+](cc2c1OCCN(CCn1cnc2ccccc21)Cc1ccc(F)cc1F)CCc1cc2c(cc1-3)OCO2.[Cl-]` has an MIC80 [1] of 32 µg/mL, an MIC [2] of 16 µg/mL and an MIC [7] of 16 µg/mL. The MIC80 [3] was 32 µg/mL, the MIC [4] was 32 µg/mL and the MIC80 [5] was 32 µg/mL. The MIC [8] was 16 µg/mL, the MIC80 [6] was 16 µg/mL and the MIC [9] was 32 µg/mL. It also gave an MIC [10] of 32 µg/mL, an MIC [11] of 32 µg/mL and an MIC [12] of 8 µg/mL.

`Fc1ccc(CN(CCBr)CCn2ccnc2)c(F)c1` showed an MIC80 [1] of 64 µg/mL (≈ 186 µM), an MIC [2] of 64 µg/mL (≈ 186 µM) and an MIC [7] of 64 µg/mL (≈ 186 µM). It also gave an MIC80 [3] of 128 µg/mL (≈ 372 µM), an MIC [4] of 128 µg/mL (≈ 372 µM) and an MIC80 [5] of 32 µg/mL (≈ 93 µM). The MIC [8] was 32 µg/mL (≈ 93 µM), the MIC80 [6] was 64 µg/mL (≈ 186 µM) and the MIC [9] was 128 µg/mL (≈ 372 µM). The MIC [10] was 256 µg/mL (≈ 744 µM), the MIC [11] was 64 µg/mL (≈ 186 µM) and the MIC [12] was 128 µg/mL (≈ 372 µM).
